The values that follow are results of earlier work, collected in patent US20130004545A1, “SLOW RELEASE PHARMACEUTICAL COMPOSITIONS OF ILOPERIDONE” (LUPIN LIMITED, priority 2009, published 2013).

The conditions of data set [1]: for t1/2: metabolite of iloperidone.
For the next data set, the target named is 5-HT2A receptors (Homo sapiens, UniProt P28223).
Another data set relates to plasma proteins. To be noted: administered orally.

5-HT2A receptors, sequence (P28223 whole entry): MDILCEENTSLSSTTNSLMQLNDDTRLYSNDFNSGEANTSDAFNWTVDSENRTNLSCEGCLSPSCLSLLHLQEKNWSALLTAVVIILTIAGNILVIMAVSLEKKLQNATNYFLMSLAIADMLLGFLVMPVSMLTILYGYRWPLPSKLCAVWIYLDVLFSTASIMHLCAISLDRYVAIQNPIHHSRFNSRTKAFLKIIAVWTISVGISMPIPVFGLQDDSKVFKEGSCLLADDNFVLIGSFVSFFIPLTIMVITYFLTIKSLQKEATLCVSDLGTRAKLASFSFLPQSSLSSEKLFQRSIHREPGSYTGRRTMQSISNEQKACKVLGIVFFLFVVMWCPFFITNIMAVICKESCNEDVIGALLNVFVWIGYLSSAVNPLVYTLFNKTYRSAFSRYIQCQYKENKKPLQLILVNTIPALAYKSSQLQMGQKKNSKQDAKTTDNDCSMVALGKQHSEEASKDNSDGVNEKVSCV

Turning to `COc1cc(C(C)O)ccc1OCCCN1CCC(c2noc3cc(F)ccc23)CC1` (stereo not drawn) [Example P88], the t1/2 in data set [1] is 25.6 h. Besides, in data set [1] (metabolite plasma level, reported), the “Plasma level relative to Iloperidone” value was “approximately 1.5 times that of Iloperidone”. In data set [1] (metabolite, after oral administration of parent active ingredient), the tmax is 6 h.

Turning to `COc1cc(C(=O)O)ccc1OCCCN1CCC(c2noc3cc(F)ccc23)CC1` [Example P95, 4-[3-[4-(6-fluoro-1,2,-benzisoxazol-3-yl)-1-piperidinyl]propoxy]-3-methoxy-benzoic acid], in data set [1], the t1/2 was 25.6 h. Moreover, the receptor affinity entry at 5-HT2A receptors was “affinity for only 5-HT2A receptors”.

As to `COc1cc(C(C)=O)ccc1OCCCN1CCC(c2noc3cc(F)ccc23)CC1` [Iloperidone], the “binding to plasma proteins” value in the data set on plasma proteins is given as “highly bound to plasma proteins”.
